Target: Beta-secretase 1 (Homo sapiens, UniProt P56817)
Assay: D3R2027
Excerpt: D3R2027

Beta-secretase 1, sequence (P56817 whole entry): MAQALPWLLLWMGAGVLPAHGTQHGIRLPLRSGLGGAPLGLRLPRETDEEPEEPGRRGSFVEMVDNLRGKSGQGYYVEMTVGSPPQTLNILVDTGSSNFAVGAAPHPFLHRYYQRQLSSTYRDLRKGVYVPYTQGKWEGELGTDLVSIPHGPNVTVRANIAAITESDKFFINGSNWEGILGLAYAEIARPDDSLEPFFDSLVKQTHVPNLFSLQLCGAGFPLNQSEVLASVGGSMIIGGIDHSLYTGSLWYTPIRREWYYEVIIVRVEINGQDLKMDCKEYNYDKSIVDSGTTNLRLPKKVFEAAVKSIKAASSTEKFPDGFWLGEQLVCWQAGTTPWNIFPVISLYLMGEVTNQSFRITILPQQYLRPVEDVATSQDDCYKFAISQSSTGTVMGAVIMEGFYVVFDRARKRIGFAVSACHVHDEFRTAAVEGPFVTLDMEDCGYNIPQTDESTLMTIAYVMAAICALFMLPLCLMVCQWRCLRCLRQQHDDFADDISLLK

Compared with `CC(C)c1cccc(CNC[C@@H](O)[C@@H]2C[C@@H]3CC[C@H](CCCCCNc4cc(cc(C(F)(F)F)c4)C(=O)N2)C3)c1` [BACE_71], `CCOc1cc(CNC[C@@H](O)[C@@H]2C[C@H](C)CCOCCCCNc3cccc(c3)C(=O)N2)cc(C(F)(F)F)c1` [BACE_73] is 19-fold higher in IC50: 340 nM for the first, 6300 nM for the second.

Going from `CCOc1ccc(C(F)(F)F)c(CNC[C@@H](O)[C@@H]2C[C@H](C)CCOCCCCNc3cccc(c3)C(=O)N2)c1` [BACE_72] to `COCc1cc2cc(c1)C(=O)N[C@H]([C@H](O)CNCc1cc(C(F)(F)F)ccc1F)C[C@H](C)CCOCCCCN2` [BACE_76], the IC50 falls from 8900 nM to 5600 nM (1.6-fold). The second is the more potent here.

Going from `C[C@@H]1CCOCCCCNc2cc(ccc2Cl)C(=O)N[C@H]([C@H](O)CNCc2cc(C(C)(C)C)ccn2)C1` [BACE_74] to `Cc1cc2cc(n1)NCCCCc1cccc(c1)C[C@@H]([C@H](O)CNCc1cc(C(C)(C)C)ccn1)NC2=O` [BACE_97], the IC50 falls from 150 nM to 3 nM (50-fold). The second is the more potent here.

`COCc1cc2cc(c1)C(=O)N[C@H]([C@H](O)CNC1(c3cccc(C(C)(C)C)c3)CC1)C[C@H](C)CCOC/C=C\CN2` [BACE_75] and `COCc1cc2cc(c1)C(=O)N[C@H]([C@H](O)CNC1(c3cccc(C(C)C)c3)CC1)C/C(C)=C/COCCCCN2` [BACE_77] are within 1.5-fold of each other in IC50: 60 nM for the first, 79 nM for the second.

Compared with `C[C@@H]1CCCCCCCOc2cccc(c2)C(=O)N[C@H]([C@H](O)CNCc2cncc(CC(C)(C)C)c2)C1` [BACE_78], `C[C@@H]1CCCCCCCOc2cccc(c2)C(=O)N[C@H]([C@H](O)CN[C@@H](C)c2cc(CC(C)(C)C)on2)C1` [BACE_79] is 2.9-fold lower in IC50: 880 nM for the first, 300 nM for the second. The second is the more potent here.

Going from `CC(C)c1cccc(CNC[C@@H](O)[C@@H]2C[C@H](C)CCCCCCCOc3cc(cc(-c4ncco4)c3)C(=O)N2)c1` [BACE_80] to `CC(C)c1cccc(CNC[C@@H](O)[C@@H]2C[C@H](C)CCCCCCCOc3cc(cc(N(C)S(C)(=O)=O)c3)C(=O)N2)c1` [BACE_82], the IC50 falls from 68 nM to 11 nM (6.2-fold). The second is the more potent here.

`C[C@@H]1CCCCCCCOc2cc(cc(-c3ncco3)c2)C(=O)N[C@H]([C@H](O)CNC2(c3cc(C(C)(C)C)ccn3)CC2)C1` [BACE_81] and `C[C@@H]1CCCCCCCOc2cc(cc(C(=O)N(C)C)c2)C(=O)N[C@H]([C@H](O)CNC2(c3cc(C(C)(C)C)ccn3)CC2)C1` [BACE_83] are within 1.5-fold of each other in IC50: 8.5 nM for the first, 6 nM for the second.

Going from `C[C@@H]1CCCCCCCOc2cc(ccn2)C(=O)N[C@H]([C@H](O)CNC(C)(C)c2cc(CC(C)(C)C)on2)C1` [BACE_84] to `Cc1cc2cc(n1)OCCCCc1cc(cc(Cl)c1O)C[C@@H]([C@H](O)CNC(C)(C)c1cc(CC(C)(C)C)on1)NC2=O` [BACE_108], the IC50 falls from 31 nM to 16 nM (1.9-fold). The second is the more potent here.

`CC(C)c1cccc(CNC[C@@H](O)[C@@H]2C[C@H](C)CCCCCCCCC(=O)N3CCCC[C@H]3C(=O)N2)c1` [BACE_85] and `CC(C)c1cccc(CNC[C@@H](O)[C@@H]2C[C@H](C)CCCCCCCC[C@@]3(O)CCC[C@H](C3)C(=O)N2)c1` [BACE_86] are within 1.5-fold of each other in IC50: 1500 nM for the first, 1700 nM for the second.

First: C[C@H]1C(=O)N[C@H]([C@H](O)CNCc2cncc(C3CC3)c2)Cc2cccc(c2)CCCCCCC(=O)N1C [BACE_87]
Second: C[C@H]1C(=O)N[C@H]([C@H](O)CNC2(c3cccc(Br)c3)CC2)Cc2cccc(c2)OCCCCCC(=O)N1C [BACE_90]
The IC50 of the first is 6.5-fold higher: 1100 nM for the first, 170 nM for the second. The second is the more potent here.

Going from `CC(C)c1cccc(CNC[C@@H](O)[C@@H]2Cc3ccc(O)c(c3)Cc3ccccc3OCC(=O)N[C@@H](C)C(=O)N2)c1` [BACE_88] to `CC(C)c1cccc(CNC[C@@H](O)[C@@H]2Cc3cccc(c3)OCCCCS(=O)(=O)C[C@@H](C)C(=O)N2)c1` [BACE_94], the IC50 falls from 4300 nM to 29 nM (150-fold). The second is the more potent here.

Going from `CC(C)c1cccc(CNC[C@@H](O)[C@@H]2Cc3cccc(c3)OCCCCO[C@H]3CCN(CC(=O)N2)C3=O)c1` [BACE_89] to `C[C@@H]1CC(=O)NCCCCOc2cccc(c2)C[C@@H]([C@H](O)CNCc2cccc(C(C)(C)C)c2)NC1=O` [BACE_92], the IC50 falls from 260 nM to 69 nM (3.8-fold).

Compared with `CC(C)c1ccc2c(c1)[C@@H](NC[C@@H](O)[C@@H]1Cc3cccc(c3)OCCCCCC(=O)N(C)[C@@H](C)C(=O)N1)CC(C)(C)O2` [BACE_91], `Cc1cc2cc(n1)OCCCCOc1cccc(c1)C[C@@H]([C@H](O)CN[C@H]1CC(C)(C)Oc3ccc(C(C)C)cc31)NC2=O` [BACE_111] is 1.5-fold higher in IC50: 2 nM for the first, 3 nM for the second.

Compared with `C[C@@H]1CC(=O)NCCCCOc2cccc(c2)C[C@@H]([C@H](O)CNC2(c3cccc(C(C)(C)C)c3)CCCCC2)NC1=O` [BACE_93], `C[C@@H]1CS(=O)(=O)CCCCOc2cccc(c2)C[C@@H]([C@H](O)CNC2(c3cccc(Br)c3)CC2)NC1=O` [BACE_95] is 6.8-fold higher in IC50: 10 nM for the first, 68 nM for the second. The first is the more potent here.

Going from `CC(C)(C)Cc1cc(C(C)(C)NC[C@@H](O)[C@@H]2Cc3cccc(c3)OCCCCOc3cc(Cl)cc(c3)C(=O)N2)no1` [BACE_96] to `CC(C)(C)Cc1cc(C(C)(C)NC[C@@H](O)[C@@H]2Cc3cccc(c3)OCCCCOc3cncc(c3)C(=O)N2)no1` [BACE_109], the IC50 falls from 8 nM to 4.5 nM (1.8-fold). The second is the more potent here.

Going from `CC(C)c1ccnc(C2(NC[C@@H](O)[C@@H]3Cc4cccc(c4)CCCCNc4cc(cc(Cl)n4)C(=O)N3)CC2)c1` [BACE_98] to `CC(C)(C)c1ccnc(C2(NC[C@@H](O)[C@@H]3Cc4cccc(c4)CCCCNc4cc(cc(-c5ncco5)c4)C(=O)N3)CC2)c1` [BACE_119], the IC50 rises from 0.5 nM to 1.5 nM (3-fold). The first is the more potent here.

Compared with `COc1cc2cc(n1)N(C)CCCCc1cccc(c1)C[C@@H]([C@H](O)CNCc1cccc(C(C)C)c1)NC2=O` [BACE_99], `CC(C)c1cccc(CNC[C@@H](O)[C@@H]2Cc3cccc(c3)CCCCN(C)c3cccc(c3)C(=O)N2)c1` [BACE_118] is 11-fold higher in IC50: 89 nM for the first, 1000 nM for the second. The first is the more potent here.

Going from `COc1ccc2cc1OCCCCNc1cc(cc(Cl)n1)C(=O)N[C@H]([C@H](O)CNCc1cccc(C(C)C)c1)C2` [BACE_100] to `COc1ccc2cc1OCCCCNc1cc(CO)cc(c1)C(=O)N[C@H]([C@H](O)CNCc1cccc(C(C)C)c1)C2` [BACE_130], the IC50 rises from 39 nM to 960 nM (25-fold).

Going from `CC(=O)N1CCCCOc2cccc(c2)C[C@@H]([C@H](O)CNCc2cc(C(C)C)ccn2)NC(=O)c2cc(C)nc1c2` [BACE_101] to `CC(C)c1ccnc(CNC[C@@H](O)[C@@H]2Cc3cccc(c3)CCCCOc3cc(cc(N4CCCC4=O)c3)C(=O)N2)c1` [BACE_136], the IC50 falls from 5500 nM to 27 nM (200-fold). The second is the more potent here.

Going from `Cc1cc2cc(n1)NC/C=C\COc1cc(ccc1F)C[C@@H]([C@H](O)CNC1(c3cccc(C(C)(C)C)c3)CC1)NC2=O` [BACE_102] to `CN(C)C(=O)c1cc2cc(c1)C(=O)N[C@H]([C@H](O)CNC1(c3cccc(C(C)(C)C)c3)CC1)Cc1ccc(F)c(c1)OC/C=C\CN2` [BACE_131], the IC50 falls from 100 nM to 41 nM (2.4-fold).

Going from `CC(C)(C)c1ccnc(CNC[C@@H](O)[C@@H]2Cc3cccc(c3)OC/C=C\CNc3cc(cc(Cl)n3)C(=O)N2)c1` [BACE_103] to `NC[C@@H](O)[C@@H]1Cc2cccc(c2)OC/C=C\CNc2cc(cc(Cl)n2)C(=O)N1` [BACE_104], the IC50 rises from 89 nM to 40000 nM (450-fold).

First: Cc1cc2cc(c1)OCCCCNc1cc(cc(Cl)n1)C(=O)N[C@H]([C@H](O)CNCc1cccc(C(C)C)c1)C2 [BACE_105]
Second: CC(C)c1cccc(CNC[C@@H](O)[C@@H]2Cc3cccc(c3)CCCCOc3cc(cc(-c4ncco4)c3)C(=O)N2)c1 [BACE_132]
The IC50 of the first is 3.7-fold lower: 68 nM for the first, 250 nM for the second. The first is the more potent here.

First: Cc1cc2cc(n1)OCCCCc1cccc(c1)C[C@@H]([C@H](O)CNC(C)(C)c1cccc(C(C)C)c1)NC2=O [BACE_106]
Second: Cc1cc2cc(n1)OCCCCc1cc(cc(Cl)c1O)C[C@@H]([C@H](O)CNC(C)(C)c1cccc(C(C)C)c1)NC2=O [BACE_107]
The IC50 of the first is 3.2-fold higher: 150 nM for the first, 47 nM for the second.

First: Cc1cc2cc(n1)OCCCCOc1cccc(c1)C[C@@H]([C@H](O)CNC(C)(C)c1cc(C(C)(C)C)sn1)NC2=O [BACE_110]
Second: COCc1cc2cc(c1)C(=O)N[C@H]([C@H](O)CNC(C)(C)c1cc(CC(C)(C)C)on1)Cc1cccc(c1)OCCCCN2 [BACE_117]
The IC50 of the first is 18-fold higher: 120 nM for the first, 6.5 nM for the second. The second is the more potent here.

`Cc1cc2cc(n1)OCc1ccccc1COc1cccc(c1)C[C@@H]([C@H](O)CNC1(c3cccc(C(C)C)c3)CC1)NC2=O` [BACE_112] and `Cc1cc2cc(n1)CCCCCc1cccc(c1)C[C@@H]([C@H](O)CNCc1cccc(C(C)C)c1)NC2=O` [BACE_113] are within 1.5-fold of each other in IC50: 1400 nM for the first, 1600 nM for the second.

Going from `CC(C)c1cccc(C(C)(C)NC[C@@H](O)[C@@H]2Cc3cccc(c3)OCCCCNc3cncc(c3)C(=O)N2)c1` [BACE_114] to `CC(C)Cc1cncc(C(C)(C)NC[C@@H](O)[C@@H]2Cc3cccc(c3)OCCCCNc3cccc(c3)C(=O)N2)c1` [BACE_123], the IC50 rises from 57 nM to 260 nM (4.6-fold).

First: CC(C)c1cccc(C(C)(C)NC[C@@H](O)[C@@H]2Cc3cccc(c3)CCCCNc3cccc(c3)C(=O)N2)c1 [BACE_115]
Second: CC(C)c1cccc(C(C)(C)NC[C@@H](O)[C@@H]2Cc3cc(F)c(N)c(c3)CCCCNc3cccc(c3)C(=O)N2)c1 [BACE_116]
The IC50 of the first is 2.4-fold higher: 290 nM for the first, 120 nM for the second. The second is the more potent here.

Compared with `CC(C)(NC[C@@H](O)[C@@H]1Cc2cccc(c2)CCCCNc2cncc(c2)C(=O)N1)c1cccc(Br)c1` [BACE_120], `CC(C)(NC[C@@H](O)[C@@H]1Cc2cccc(c2)CCCCNc2cc(c[n+](Cc3ccccc3)c2)C(=O)N1)c1cccc(Br)c1` [BACE_121] is 6.1-fold higher in IC50: 590 nM for the first, 3600 nM for the second. The first is the more potent here.

Going from `CC(C)c1cccc(C(C)(C)NC[C@@H](O)[C@@H]2Cc3cccc(c3)OCCCCNc3cccc(n3)C(=O)N2)c1` [BACE_122] to `COCc1cc2cc(c1)C(=O)N[C@H]([C@H](O)CNC(C)(C)c1cc(C(C)(C)C)ccn1)Cc1cccc(c1)OCCCCN2` [BACE_124], the IC50 falls from 2300 nM to 25 nM (92-fold).

Compared with `C[C@H](NC[C@@H](O)[C@@H]1Cc2cccc(c2)OCCCCOc2cncc(c2)C(=O)N1)c1cc(CC(C)(C)C)on1` [BACE_125], `COCc1cc2cc(c1)C(=O)N[C@H]([C@H](O)CNCc1cc(CC(C)(C)C)on1)Cc1cccc(c1)OCCCCN2` [BACE_129] is 2.3-fold higher in IC50: 6 nM for the first, 14 nM for the second.

Going from `COCc1cc2cc(c1)C(=O)N[C@H]([C@H](O)CN)Cc1cccc(c1)OCCCCN2` [BACE_126] to `COCc1cc2cc(c1)C(=O)N[C@H]([C@H](O)CNCc1cnn(CC(C)C)c1)Cc1cccc(c1)OCCCCN2` [BACE_127], the IC50 falls from 13000 nM to 100 nM (130-fold).

First: COCc1cc2cc(c1)C(=O)N[C@H]([C@H](O)CN[C@H]1CC(C)(C)Oc3ccc(C(C)C)cc31)Cc1cccc(c1)OCCCCN2 [BACE_128]
Second: COC(=O)c1cc2cc(c1)C(=O)N[C@H]([C@H](O)CNCc1cccc(C(C)C)c1)Cc1cccc(c1)CCCCO2 [BACE_134]
The IC50 of the first is 72-fold lower: 2.5 nM for the first, 180 nM for the second.

Compared with `CC(=O)COc1cc2cc(c1)C(=O)N[C@H]([C@H](O)CNC1(c3cc(C(C)(C)C)ccn3)CC1)Cc1cccc(c1)CCCCO2` [BACE_133], `CC(=O)COc1cc2cc(c1)C(=O)N[C@H]([C@H](O)CNCc1cc(C(C)(C)C)ccn1)Cc1cccc(c1)CCCCO2` [BACE_135] is 5-fold higher in IC50: 2 nM for the first, 10 nM for the second.

Reference: BindingDB's records for doi:10.7270/Q2N301S8 (D3R/Abbott, 2020)
